Article PMC6493465 (Oncotarget, 2019)
Structures can show the parent of a compound that is named as a salt. Where two headings read alike, the source gives them in different places. Each block holds one molecule with its values, some of them ahead of it.

Legend:
[1] = test system: MOLM-13 cells; assay: Annexin-V staining (apoptosis), MOLM-13; type: cell-based, human; settings: single agent: IDR 3 nM, AraC 100 nM or Aza 1000 nM, 48 hours
Description: MV4-11 cells were seeded in 12-well plates at a concentration of 2 × 10^5 cells/well and cultured overnight. […] MOLM-13 cells were seeded in 12-well plates at a concentration of 1 × 10^5 cells/well and cultured overnight.
Cells were harvested and incubated with Guava® Nexin Reagent (Merck Millipore Corporation, Billerica, MA). Annexin-V-positive cells were assessed using a Guava® PCA microcytometer (Merck Millipore Corporation); the percentage of annexin-V-positive cells (2000 cells per sample) was analyzed using CytoSoft™ software (Merck Millipore Corporation). Mean percentages of annexin-V-positive cells were derived from three independent experiments.

[2] = test system: MCL-1, BCL2L10, survivin and cPARP in MOLM-13 cells; assay: Western blot analysis of anti-apoptotic protein expression, MOLM-13; type: cell-based, human; settings: MOLM-13, 24-hour treatment; gilteritinib 30 nM, AraC 100 nM, IDR 3 nM, Aza 1000 nM
Description: Cell lysates were prepared in radioimmunoprecipitation assay buffer (Thermo Fisher Scientific Inc., Rockford, IL) supplemented with phosphatase (Thermo Fisher Scientific Inc.) and protease inhibitors (Merck, Billerica, MA), electrophoresed on 4%–15% gels, and subsequently transferred to polyvinylidene difluoride membranes. The membranes were blocked using Blocking One (Nacalai Tesque Inc., Kyoto, Japan) for 1 hour and then incubated overnight with primary antibodies to MCL-1, BCL210, cPARP (all from Cell Signaling Technology, Danvers, MA, USA), survivin (R&D Systems, Inc., Minneapolis, MN), and α-actin (MilliporeSigma, Burlington, MA). The membranes were washed with TBS Tween-20 (TBS-T) buffer and incubated with appropriate horseradish peroxidase-linked secondary antibodies (Cell Signaling Technology Japan K.K.) for 1 hour at room temperature. After washing the membranes in TBS-T buffer, enhanced chemiluminescence Western Blotting Detection Reagent ECL-prime (GE Healthcare, Fairfield, CT) was applied. Signals were detected with a charge-coupled device camera (ImageQuant LAS4000; GE Healthcare); signal intensity was quantified using ImageQuant™ TL software (GE Healthcare).

[3] = Pharmacokinetic assays (plasma and tumor) in nude mice xenografted with MV4-11 cells; type: in vivo, mouse; settings: for Cmax / Tmax / AUC / half-life / clearance / Vd: nude, mouse; for AUC: read-out: AUC24; for concentration in tumor fraction versus plasma fraction: xenografted mice; for clearance: read-out: CLtot (converted); for Vd: read-out: Vss
Description: Plasma samples were prepared by centrifugation (n=3 per group; one sample in the combination group was excluded due to improper handling). […] These assays were conducted by Astellas Research Technologies Co., Ltd. under the guidance of Analysis & Pharmacokinetics Research Laboratories, Astellas Pharma, Inc., or by Nemoto Science Co., Ltd. (Ibaraki, Japan). […] Body weight and tumor assessments obtained on with MV4-11 cells received one of the following Day −1 were designated as Day 0 (baseline) measurements. combination treatments: 1. […] The percent tumor regression was calculated using the formula: […]

[4] = plasma, ip, 50 mg/kg, AraC in plasma, gilteritinib 3, AraC 50, IDR 0.5 mg/kg
[5] = plasma, ip, AraC in plasma, gilteritinib 0, AraC 50, IDR 0.5 mg/kg
[6] = tumor, ip, 50 mg/kg, AraC in tumor, gilteritinib 3, AraC 50, IDR 0.5 mg/kg
[7] = tumor, ip, AraC in tumor, gilteritinib 0, AraC 50, IDR 0.5 mg/kg
[8] = idarubicin in tumor, with versus without gilteritinib
[9] = tumor, iv, 0.5 mg/kg, idarubicin in tumor, gilteritinib 0, AraC 50, IDR 0.5 mg/kg
[10] = tumor, iv, idarubicin in tumor, gilteritinib 3, AraC 50, IDR 0.5 mg/kg

AUC24 ratio ([3]; AraC in plasma, with versus without gilteritinib): 0.32
AUC24 ([3]; AraC in tumor, gilteritinib 0, AraC 50, IDR 0.5 mg/kg): 7968 ng·h/g
AUC24 ratio ([3]; AraC in tumor, with versus without gilteritinib): 1.13
Cmax [3, 4]: 18000 ng/mL
Tmax [3, 4]: 0.083 h
AUC [3, 4]: 9960 ng·h/mL
Cmax [3, 5]: 28700 ng/mL
Tmax [3, 5]: 0.25 h
AUC [3, 5]: 31600 ng·h/mL
Cmax [3, 6]: 1060 ng/g
Tmax [3, 6]: 2 h
Cmax [3, 7]: 904 ng/g
Tmax [3, 7]: 2 h
concentration in tumor fraction versus plasma fraction [3]: higher in the plasma fraction
SMILES: Nc1ccn([C@@H]2O[C@H](CO)[C@@H](O)[C@@H]2O)c(=O)n1 [AraC, Cytarabine]
mean percentage of annexin V-positive cells [1]: 21.9%
expression of MCL-1, BCL2L10, and survivin [2]: little effect

AUC24 ratio ([3]; idarubicin in plasma, with versus without gilteritinib): 1.23
AUC24 ([3]; idarubicin in tumor, gilteritinib 0, AraC 50, IDR 0.5 mg/kg): 4491 ng·h/g
AUC24 ([3]; idarubicin in tumor, gilteritinib 3, AraC 50, IDR 0.5 mg/kg): 4855 ng·h/g
AUC24 ratio [3, 8]: 1.08
Cmax ratio [3, 8]: 1.11
half-life ([3]; plasma, iv): 2.24 h
half-life ([3]; plasma, iv, 0.5 mg/kg): 1.49 h
AUC ([3]; plasma, iv, 0.5 mg/kg, idarubicin in plasma, gilteritinib 0, AraC 50, IDR 0.5 mg/kg): 63.3 ng·h/mL
clearance ([3]; plasma, iv, 0.5 mg/kg): 217 mL/min/kg
Vd ([3]; plasma, iv, 0.5 mg/kg): 26.7 L/kg
AUC ([3]; plasma, iv, idarubicin in plasma, gilteritinib 3, AraC 50, IDR 0.5 mg/kg): 77.9 ng·h/mL
clearance ([3]; plasma, iv): 172 mL/min/kg
Vd ([3]; plasma, iv): 31.5 L/kg
Cmax [3, 9]: 204 ng/g
Tmax [3, 9]: 4 h
Cmax [3, 10]: 226 ng/g
Tmax [3, 10]: 24 h
concentration in tumor fraction versus plasma fraction [3]: higher in the tumor fraction
SMILES: CC(=O)[C@]1(O)Cc2c(O)c3c(c(O)c2[C@@H](O[C@H]2C[C@H](N)[C@H](O)[C@H](C)O2)C1)C(=O)c1ccccc1C3=O [IDR, Idarubicin hydrochloride]
mean percentage of annexin V-positive cells [1]: 36.6%
expression of MCL-1, BCL2L10, and survivin [2]: little effect
